Test results taken from patent publication US20120329761A1, “USE OF TIGECYCLINE FOR TREATMENT OF CANCER” (UNIVERSITY HEALTH NETWORK, priority 2010, published 2012).

Columns and labels:
TEX cells = assay: ROS generation, DCF-DA and DHE staining; format: cell-based, human; details: time-points up to 24 hours
Description: FIG. 4. […] (A) Cells from TEX, OCI-AML2 and two primary AML patients were treated with increasing concentrations (2.5 μM and 5 μM) of tigecycline for 36 and 48 hours of tigecycline. Total proteins were extracted and analyzed by western blotting for Cox-1, Cox-2, Cox-4, grp78, XIAP, actin and tubulin. (B) TEX and AML patient cells were treated with increasing concentrations (2.5 μM and 5 μM) of tigecycline. Cox-1, Cox-2, and Cox-4 mRNA expression relative 18S was determined by quantitative RT-PCR. Data is shown as mean±SD. (C) TEX cells were treated with increasing concentrations of tigecycline and chloramphenicol (CAP) for 72 hours. Complex I, II and IV enzyme activity relative to citrate synthase activity was determined as described in materials and methods. (D) Cells from TEX, primary AML patients, and normal donors were treated with increasing concentrations of tigecycline. Mitochondrial membrane potential (Δψ) was determined by staining cells with JC-1 dye, and flow cytometry analysis (Red/Green ratio). Reactive oxygen species generation (ROS) was determined by staining with h2-DCFDA and Dihydroethidium (DHE).
A byproduct of the mitochondrial enzyme activities of the electron transport chain is the generation of reactive oxygen species (ROS). […] Therefore, the role of tigecycline on ROS generation in leukemia cells by analyzing hydrogen peroxide ions (H2O2) using a dichlorofluorescein dye (DCF-DA), and superoxide anions using dihydroethidium (DHE) was examined.

[1] = system: acute myeloid leukemia (AML); details: 13 patients treated; cited from earlier work

| Compound | ROS generation (TEX cells) | complete remission (number of patients) [1] | partial remissions (number of patients) [1] |
| --- | --- | --- | --- |
| CC[C@H]1/C=C/C=C/C[C@@H](C)[C@H](O)[C@@](C)(O)C(=O)[C@@H](C)[C@H](O)[C@@H](C)C(=O)[C@@H](C)[C@H](O)[C@@H](C)/C=C/C(=O)O[C@@H]2[C@H](C)[C@H](CC1)O[C@]1(CC[C@H](C)[C@H](C[C@@H](C)O)O1)[C@H]2C [oligomycin] | rapid increases in ROS levels |  |  |
| NC(=O)c1ncn([C@@H]2O[C@H](CO)[C@@H](O)[C@H]2O)n1 [ribavirin] |  | 1 | 2 |
| C=C(C)[C@H]1Cc2c(ccc3c2O[C@@H]2COc4cc(OC)c(OC)cc4[C@@H]2C3=O)O1 [rotenone] | rapid increases in ROS levels |  |  |
| antimycin | rapid increases in ROS levels |  |  |
